The values that follow are results of earlier work, collected in US20220142944A1, “TREATMENT OF SKIN DISORDERS WITH TOPICAL TAPINAROF-EGFR INHIBITOR COMPOSITIONS” (Sol-Gel Technologies Ltd., priority 2019, published 2022).

Assay in series [1]: not given
This is another data set of the same source.

For series [2], the system named is atopic dermatitis and plaque psoriasis.
The mark [3] stands for this setting: 1% tapinarof arm compared with 0.5% arm or vehicle.

As for `C#Cc1cccc(Nc2ncnc3cc(OCCOC)c(OCCOC)cc23)c1` [erlotinib], the solubility entry is “poorly soluble”.
On to `CC(C)c1c(O)cc(/C=C/c2ccccc2)cc1O` [tapinarof, 3,5-dihydroxy-4-isopropyl-trans-stilbene], for which the “rate of treatment-emergent adverse events” value in series [1] (93 of 165 with tapinarof, vehicle 34 of 82 [41%]) is 56%. The “intensity of treatment-emergent adverse events” value in series [1] (in vivo) is “mild to moderate”. Further, in series [2] (setting [3]), the efficacy entry was “higher efficacy” and the onset of action result was “quicker onset of action”. Moreover, the “most frequent adverse events” value in series [2] (topical tapinarof) is “folliculitis and contact dermatitis”.
